PubChem BioAssay (NCI)
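A five-concentration, 48-hour dose response in 96-well plates underlies each endpoint, interpolated linearly between surrounding concentrations. Abbreviation: GI50, concentration required for 50% inhibition of growth. TGI: total growth inhibition.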 Where a SMILES comes first, the peptide text is derived from it. [ ]: non-standard residue; d: D form. The star is where a group is joined. ξ: configuration not given here. X28 = COC1=CC(=O)N(C(=O)[C@@H](O*)C(C)C)[C@H]1Cc1ccccc1; X37 = O=C(OCc1ccccc1)[C@@H]1CCC[C@H]1N*; Fmoc = O=C(OCC1c2ccccc2-c2ccccc21)*; ξW = NC(Cc1c[nH]c2ccccc12)C(=O)O; NMeL = CN[C@@H](CC(C)C)C(=O)O; ξF = NC(Cc1ccccc1)C(=O)O; Hexanoyl = CCCCCC(=O)*; Boc = CC(C)(C)OC(=O)*; ξK = NCCCCC(N)C(=O)O; ξT = CC(O)C(N)C(=O)O; OBn = c1ccc(CO*)cc1; Bn = c1ccc(C*)cc1; tBu = CC(C)(C)*

Experiments:
Experiment in all cases: NCI anticancer screen, dose series, 48 h
CCRF-CEM leukemia = tested on: CCRF-CEM leukemia
DU-145 prostate = tested on: DU-145 prostate
NCI-H460 lung = tested on: NCI-H460 lung
DLD-1 colon = tested on: DLD-1 colon
DMS 273 small cell lung = tested on: DMS 273 small cell lung
KM20L2 colon = tested on: KM20L2 colon
LXFL 529 NSCLC = tested on: LXFL 529 NSCLC
M19-MEL melanoma = tested on: M19-MEL melanoma
XF 498 CNS = tested on: XF 498 CNS
SNB-78 CNS = tested on: SNB-78 CNS

## COc1ccc(N=NN2CCCC2)cc1
CCRF-CEM leukemia
  TGI: 56.6 µM
DU-145 prostate
  TGI: > 100 µM
NCI-H460 lung
  TGI: > 100 µM

## CCCCCCc1cc(C=O)sc1-c1ccc(-c2sc(-c3ccc(-c4ccc(-c5cc(CCCCCC)c(-c6ccc(-c7sc(C=O)cc7CCCCCC)s6)s5)s4)s3)cc2CCCCCC)s1
CCRF-CEM leukemia
  TGI: > 100 µM
DU-145 prostate
  TGI: > 100 µM
NCI-H460 lung
  TGI: > 100 µM

## COc1ccc(OC)c2c1C[C@@H]1C(C#N)N3[C@H](Cc4c(OC)ccc(OC)c4[C@@H]3C)C(=O)N1[C@H]2C (some centres undefined)
CCRF-CEM leukemia
  TGI: 6.75 µM
DU-145 prostate
  TGI: > 54.7 µM
NCI-H460 lung
  TGI: 48 µM

## CC(C)(C)NCC(O)COc1cccc2[nH]c(C#N)cc12 (centres undefined)
DU-145 prostate
  TGI: > 100 µM

## CC1OC(OP(=O)(OCc2ccccc2)OCc2ccccc2)C(OC(=O)c2ccccc2)C(OC(=O)c2ccccc2)C1I (centres undefined)
CCRF-CEM leukemia
  TGI: > 100 µM
DLD-1 colon
  TGI: > 100 µM
DMS 273 small cell lung
  TGI: > 100 µM
KM20L2 colon
  TGI: > 100 µM
LXFL 529 NSCLC
  TGI: > 100 µM
M19-MEL melanoma
  TGI: > 100 µM
NCI-H460 lung
  TGI: > 100 µM
XF 498 CNS
  TGI: > 100 µM

## CCc1nnc2sc(-c3ccc(-c4ccc(Cl)cc4Cl)o3)nn12
CCRF-CEM leukemia
  TGI: > 100 µM
DU-145 prostate
  TGI: > 100 µM
NCI-H460 lung
  TGI: > 100 µM

## Brc1ccc(-c2ccc(-c3ccc(Br)s3)s2)s1
CCRF-CEM leukemia
  TGI: > 100 µM
DU-145 prostate
  TGI: > 100 µM
NCI-H460 lung
  TGI: > 100 µM

## Cc1cc(SCC(=O)c2ccc(Br)cc2)cc(C)[o+]1
CCRF-CEM leukemia
  TGI: 44 µM
DU-145 prostate
  TGI: 68.9 µM
NCI-H460 lung
  TGI: 76.2 µM

## CC1OC(OC2C(CO)OC(O[C@H]3CC[C@@]4(C)C(=CC[C@H]5[C@@H]6C[C@@H]7O[C@](O)(CC[C@@H](C)COC8OC(CO)C(O)C(O)C8O)[C@@H](C)[C@@H]7[C@@]6(C)CC[C@@H]54)C3)C(OC3OC(C)C(O)C(O)C3O)C2O)C(O)C(O)C1O (some centres undefined)
CCRF-CEM leukemia
  TGI: 6.38 µM
DU-145 prostate
  TGI: 4.97 µM
NCI-H460 lung
  TGI: 4.57 µM

## CC1(C)COC(c2cccc(C3=NC(C)(C)CO3)c2)=N1
DU-145 prostate
  TGI: > 100 µM
NCI-H460 lung
  TGI: > 100 µM

## CC1(C(O)c2ccccc2)CN(C(C)(C)C)C(=O)/C1=C\Sc1ccccc1 (centres undefined)
CCRF-CEM leukemia
  TGI: > 100 µM
DU-145 prostate
  TGI: > 100 µM

## Cc1nn(-c2ccccc2)c(C)c1/C=N/NC(=O)c1sc(=S)n(-c2ccc(Cl)cc2)c1N
CCRF-CEM leukemia
  TGI: > 100 µM
DU-145 prostate
  TGI: > 100 µM
NCI-H460 lung
  TGI: 95.1 µM

## CC(OC(C)(C)C)C(NC(=O)C(CCCCNC(=O)OC(C)(C)C)NC(=O)C(Cc1c[nH]c2ccccc12)NC(=O)C(Cc1ccccc1)NC(=O)OCC1c2ccccc2-c2ccccc21)C(=O)NC(Cc1ccccc1)C(=O)N[C@@H]1CCC[C@H]1C(=O)OCc1ccccc1 (some centres undefined) (Fmoc-[ξF][ξW][ξK](Boc)[ξT](tBu)[ξF]-X37)
CCRF-CEM leukemia
  TGI: > 100 µM
DU-145 prostate
  TGI: > 100 µM
NCI-H460 lung
  TGI: > 100 µM

## NC12c3c4cccc3Oc3cccc(c31)Oc1cccc(c12)O4
CCRF-CEM leukemia
  TGI: > 50 µM
DU-145 prostate
  TGI: > 50 µM
NCI-H460 lung
  TGI: > 50 µM

## CC1(C)OC1CC/C(=C/CBr)CBr (centres undefined)
CCRF-CEM leukemia
  TGI: 34.1 µM
DU-145 prostate
  TGI: 55.6 µM
NCI-H460 lung
  TGI: 29 µM

## O=c1[nH]c2ccc(CC(=S)N3CCN(c4ccccc4)CC3)cc2s1
CCRF-CEM leukemia
  TGI: > 100 µM
DU-145 prostate
  TGI: > 100 µM
NCI-H460 lung
  TGI: 56.1 µM

## c1ccc(/C(=N/Nc2cnccn2)c2ncccn2)cc1
CCRF-CEM leukemia
  TGI: > 100 µM
DU-145 prostate
  TGI: > 100 µM
NCI-H460 lung
  TGI: > 100 µM

## COc1ccc2c(c1)CC[C@@H]1C2CC[C@]2(C)OC(=O)CCC12 (some centres undefined)
CCRF-CEM leukemia
  TGI: > 100 µM
DU-145 prostate
  TGI: > 100 µM
NCI-H460 lung
  TGI: > 100 µM

## COC(=O)c1c(C)nc(C)c(N=O)c1-c1ccccc1C(F)(F)F
CCRF-CEM leukemia
  TGI: > 100 µM
DU-145 prostate
  TGI: > 100 µM
NCI-H460 lung
  TGI: > 100 µM

## CC(C)CC(NC(=O)C(Cc1ccccc1)NC(=O)C(COCc1ccccc1)NC(=O)OC(C)(C)C)C(=O)OCc1ccccc1 (stereo not drawn) (Boc-Ser(Bn)-Phe-Leu-OBn; configuration not given here)
CCRF-CEM leukemia
  TGI: 63.7 µM
DU-145 prostate
  TGI: 25.2 µM
NCI-H460 lung
  TGI: 26.4 µM

## Cc1cccc(Nc2cn(CCOc3ccccc3)c(=O)[nH]c2=O)c1
CCRF-CEM leukemia
  TGI: > 100 µM
DU-145 prostate
  TGI: > 100 µM
NCI-H460 lung
  TGI: > 100 µM

## CCC1OC2C(CC=C(C)C)=C3OC(C)(O)C(C)(CC)C(O)C3=C3OC(=O)C=C1C32 (centres undefined)
CCRF-CEM leukemia
  TGI: > 100 µM
DU-145 prostate
  TGI: > 100 µM
NCI-H460 lung
  TGI: 70.5 µM

## COC(=O)c1ccc(/C=C/C2=CC(=O)C=CC2=O)cc1
CCRF-CEM leukemia
  TGI: 6.54 µM
DU-145 prostate
  TGI: > 100 µM
NCI-H460 lung
  TGI: > 64.6 µM

## Cc1ccc(Nc2ncnc3sc(SCc4ccccc4)nc23)cc1
CCRF-CEM leukemia
  TGI: > 100 µM
DU-145 prostate
  TGI: > 100 µM
NCI-H460 lung
  TGI: > 100 µM

## COc1ccc(N(C(=O)OC(C)(C)C)[C@@H]2C(C)=C[C@H]([S@@](=O)c3ccc(C)cc3)[C@@H]3C(=O)N(C)C(=O)[C@@H]32)cc1
CCRF-CEM leukemia
  TGI: > 100 µM
DU-145 prostate
  TGI: 81.8 µM
NCI-H460 lung
  TGI: > 100 µM

## C(=N\NC1=NCCCN1)/c1ccc(-c2cn3cc(/C=N/NC4=NCCCN4)ccc3n2)cc1
CCRF-CEM leukemia
  TGI: > 66.2 µM
DU-145 prostate
  TGI: > 100 µM
NCI-H460 lung
  TGI: > 100 µM

## CC(=O)NC1C(OCC(=O)NC(C)C(=O)NC(CCC(=O)NCCCCCNc2ccc([N+](=O)[O-])c3[nH]c4ccccc4c(=O)c23)C(N)=O)C(O)C(CO)OC1(C)OCc1ccccc1 (centres undefined)
CCRF-CEM leukemia
  TGI: > 50 µM
DU-145 prostate
  TGI: > 50 µM
NCI-H460 lung
  TGI: > 50 µM

## CC(C)(C)[C@@H]1NC(=O)CN1C(=O)OCc1ccccc1
CCRF-CEM leukemia
  TGI: > 100 µM
DU-145 prostate
  TGI: > 100 µM
NCI-H460 lung
  TGI: > 100 µM

## N#Cc1nn(-c2ccc(Cl)cc2)c(N)c2c(=N)n3nc(-c4ccccc4)cc3nc12
CCRF-CEM leukemia
  TGI: > 100 µM
DLD-1 colon
  TGI: > 64.2 µM
DMS 273 small cell lung
  TGI: > 100 µM
KM20L2 colon
  TGI: > 100 µM
LXFL 529 NSCLC
  TGI: > 54.4 µM
NCI-H460 lung
  TGI: > 92.3 µM
SNB-78 CNS
  GI50: > 100 µM
  TGI: > 100 µM
XF 498 CNS
  TGI: > 100 µM

## N#CC(C(=O)c1ccccc1F)c1nc2cc(C(F)(F)F)ccc2s1 (centres undefined)
DU-145 prostate
  TGI: > 100 µM
NCI-H460 lung
  TGI: > 100 µM

## S=C1c2cc(Cl)ccc2NC(=NC2CCCC2)C2CSCN12 (centres undefined)
CCRF-CEM leukemia
  TGI: > 100 µM
DU-145 prostate
  TGI: > 100 µM
NCI-H460 lung
  TGI: > 100 µM

## NS(=O)(=O)c1ccc(CNC(=S)NC(=O)Nc2ccc(Cl)c(Cl)c2)cc1
CCRF-CEM leukemia
  TGI: 43.4 µM
DU-145 prostate
  TGI: > 100 µM
NCI-H460 lung
  TGI: 94 µM

## c1ccc(COc2nc3ccc(C45CC6CC(CC(C6)C4)C5)cc3[nH]2)cc1
CCRF-CEM leukemia
  TGI: > 100 µM
DU-145 prostate
  TGI: > 100 µM
NCI-H460 lung
  TGI: > 71.3 µM

## CCOc1ccc(N=NC2C(=O)N(C(=O)CC(=O)Nc3ccc(Cl)cc3)N=C2C)cc1 (centres undefined)
CCRF-CEM leukemia
  TGI: > 100 µM
DU-145 prostate
  TGI: > 100 µM
NCI-H460 lung
  TGI: > 100 µM

## COC(=O)CP1(=O)OC2C(C3CCC2(C)C3(C)C)N1c1cc(C(F)(F)F)cc(C(F)(F)F)c1 (centres undefined)
DU-145 prostate
  TGI: > 100 µM
NCI-H460 lung
  TGI: 86.2 µM

## CCCCCC(=O)N[C@H](C(=O)N[C@H](C(=O)N(C)[C@@H](CC(C)C)C(=O)N1CCC[C@H]1C(=O)N1CCC[C@H]1C(=O)O[C@H](C(=O)N1C(=O)C=C(OC)[C@@H]1Cc1ccccc1)C(C)C)C(C)C)C(C)C (Hexanoyl-VV[NMeL]PP-X28)
CCRF-CEM leukemia
  TGI: > 100 µM
DU-145 prostate
  TGI: > 100 µM
NCI-H460 lung
  TGI: > 100 µM

## CCOC(=O)c1ccc(N=C/C=C(\Nc2ccc(C(=O)OCC)cc2)c2ccc3ccccc3c2)cc1
CCRF-CEM leukemia
  TGI: 46.5 µM
DU-145 prostate
  TGI: > 100 µM
NCI-H460 lung
  TGI: > 100 µM

## COc1ccc(NS(=O)C2CCCCC2)cc1 (centres undefined)
CCRF-CEM leukemia
  TGI: > 100 µM
DU-145 prostate
  TGI: > 100 µM
NCI-H460 lung
  TGI: > 100 µM
